From PMC1129089, “Identification and characterization of a novel mammalian Mg^2+ transporter with channel-like properties” (BMC Genomics, 2005)

Experiments:
[1] = target: T1, hMagT1 (human MagT1) (Homo sapiens, UniProt Q9H0U3); test: two-microelectrode voltage clamp, Xenopus oocytes, Mg2+-evoked current; assay type: cell-based; conditions: 10 μM compound, -125 mV, n = 5; activator; control current 0.59 ± 0.09 μA
T1 construct: full-length ORF, 335 residues, 38,036 Da; subcloned in pEYFP-N1, cRNA injected in Xenopus laevis oocytes; no fusion tag stated
T1 sequence (Q9H0U3 30-335): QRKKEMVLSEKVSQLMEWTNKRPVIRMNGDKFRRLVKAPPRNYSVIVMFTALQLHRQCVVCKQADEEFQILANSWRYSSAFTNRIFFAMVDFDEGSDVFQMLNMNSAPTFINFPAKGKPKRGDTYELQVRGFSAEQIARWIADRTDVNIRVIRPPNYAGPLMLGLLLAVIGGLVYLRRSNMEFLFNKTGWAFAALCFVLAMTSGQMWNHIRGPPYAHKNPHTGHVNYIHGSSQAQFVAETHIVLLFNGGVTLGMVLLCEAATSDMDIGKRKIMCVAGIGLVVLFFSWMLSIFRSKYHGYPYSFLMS

[2] = target: T1, hMagT1 (human MagT1); test: as above; assay type: cell-based; conditions: 10 μM compound, -125 mV, n = 7; inhibitor; control current 0.59 ± 0.09 μA

Row | Compound | current at 10 μM [1] [μA] | residual current at 10 μM [2] [μA]
1 | COC(=O)C1=C(C)NC(C)=C([N+](=O)[O-])C1c1ccccc1C(F)(F)F (centres unmarked) [BAY K8644] | 0.80 ± 0.18 | 
2 | CCOC(=O)C1=C(C)NC(C)=C(C(=O)OC)C1c1cccc([N+](=O)[O-])c1 (centres unmarked) [nitrendipine] |  | 0.15 ± 0.02
